Laboratory results from patent US11667604B2, “Phenyl containing compound, intermediate thereof, preparation method therefor and application thereof” (SHANGHAI MODERN PHARMACEUTICAL ENGINEERING RESEARCH CENTER …, priority 2019, dated 2023).
Where a name gives a salt, the structure may show the parent alone.

Experiment: Stability testing of carriers in solid form, residual amount determined by HPLC, and appearance
Format: physicochemical
Conditions: for Appearance: storage condition not specified
Description: The carrier of embodiment 1 was placed in solid form under normal temperature and normal light, normal temperature and away from light, 4° C. away from light and −18° C. away from light, respectively, and the residual amount of the carrier was measured after being placed for 1d, 3d, 7d, 30d, 60d, 90d and 120d, respectively, and the residual amount was determined by HPLC.
The sodium salt of N-(all-trans-retinoyl)-L-cysteic acid methyl ester was placed in solid form at normal temperature and normal light, at normal temperature and away from light, at 4° C. away from light and at −18° C. away from light respectively (other conditions are the same as those in embodiment 4), and the appearance and residual amount were tested after being placed for 1d, 3d, 7d and 30d, respectively, wherein the residual amount was determined by HPLC.

- Appearance (0 d): Yellow powder
- residual amount (4° C. away from light, 0 d): 99.54%
- residual amount (4° C. away from light, 3 d): 93.76%
- residual amount (4° C. away from light, 7 d): 89.09%
- residual amount (4° C. away from light, 30 d): 79.69%
- Appearance (3 d): Orange
- Appearance (7 d): Brown viscous
- Appearance (30 d): Dark brown viscous
- residual amount (normal temperature and away from light, 0 d): 99.54%
- residual amount (normal temperature and away from light, 3 d): 88.91%
- residual amount (normal temperature and away from light, 7 d): 78.62%
- residual amount (normal temperature and normal light, 0 d): 99.54%
- residual amount (normal temperature and normal light, 3 d): 83.71%
- residual amount (normal temperature and normal light, 7 d): 64.32%
- residual amount (−18° C. away from light, 0 d): 99.54%
- residual amount (−18° C. away from light, 3 d): 96.16%
- residual amount (−18° C. away from light, 7 d): 94.17%
- residual amount (−18° C. away from light, 30 d): 89.98%
SMILES: COC(=O)[C@H](CS(=O)(=O)O)NC(=O)/C=C(C)/C=C/C=C(C)/C=C/C1=C(C)CCCC1(C)C [sodium salt of N-(all-trans-retinoyl)-L-cysteic acid methyl ester]
